Measurements reported in patent US8158776B2, “P2Y6 receptor agonists for treating lung diseases” (Inspire Pharmaceuticals, Inc., priority 2005, dated 2012).

Tests used:
Assay type in all cases: cell-based
P2Y2 = molecular target: T1, P2Y2 (Homo sapiens, UniProt P41231); test: Intracellular calcium mobilization (FLIPR, Fluo-3 AM) in 1321N1 cells expressing P2Y2; settings: 1321N1 cells expressing P2Y2, intracellular calcium
T1 construct: expressed in transfected cells; host or cells: human astrocytoma 1321N1 cells
Experimental: (§1) Human astrocytoma (1321N1) cells expressing P2Y1, P2Y2, P2Y4, and P2Y6 were grown to confluency in 96-well plates. Cells were loaded with a solution of Fluo-3 AM (2.5 μM final concentration) in an assay buffer consisting of 10 mM KCl, 118 mM NaCl, 2.5 mM CaCl2, 1 mM MgCl2, 20 mM HEPES, 10 mM glucose, pH 7.4. After a 60-minute incubation with Fluo-3 AM at 25° C., cells were washed and stimulated with serially diluted concentrations of compounds uridine 5′-diphosphate (UDP), P^1, P^3-(diuridine 5′-)triphosphate (UP3U) or P^1-(2′,3′-benzylacetal uridine 5′-)P^3-(uridine 5′-)triphosphate (mono-benzylacetal UP3U). Intracellular calcium levels were monitored in each well simultaneously by measuring the changes in fluorescence intensity using the FLIPR (Molecular Devices Corp., Sunnyvale, Calif.). Values for compounds UDP, UP3U, and mono-benzylacetal UP3U in Table 1 are presented as EC50 values corresponding to the concentration of an agonist that produces 50% of the maximum possible response.

P2Y4 = molecular target: T2, P2Y4 (Homo sapiens, UniProt P51582); test: Intracellular calcium mobilization (FLIPR, Fluo-3 AM) in 1321N1 cells expressing P2Y4; settings: 1321N1 cells expressing P2Y4, intracellular calcium
T2 construct: expressed in transfected cells; host or cells: human astrocytoma 1321N1 cells
Experimental: as §1

P2Y1 = molecular target: T3, P2Y1 (Homo sapiens, UniProt P47900); test: Intracellular calcium mobilization (FLIPR, Fluo-3 AM) in 1321N1 cells expressing P2Y1; settings: 1321N1 cells expressing P2Y1, intracellular calcium
T3 construct: expressed in transfected cells; host or cells: human astrocytoma 1321N1 cells
Experimental: as §1

P2Y6 = molecular target: T4, P2Y6 (Homo sapiens, UniProt Q15077); test: Intracellular calcium mobilization (FLIPR, Fluo-3 AM) in 1321N1 cells expressing P2Y6; settings: 1321N1 cells expressing P2Y6, intracellular calcium
T4 construct: expressed in transfected cells; host or cells: human astrocytoma 1321N1 cells
Experimental: as §1

T4 sequence (Q15077 whole entry, species assumed): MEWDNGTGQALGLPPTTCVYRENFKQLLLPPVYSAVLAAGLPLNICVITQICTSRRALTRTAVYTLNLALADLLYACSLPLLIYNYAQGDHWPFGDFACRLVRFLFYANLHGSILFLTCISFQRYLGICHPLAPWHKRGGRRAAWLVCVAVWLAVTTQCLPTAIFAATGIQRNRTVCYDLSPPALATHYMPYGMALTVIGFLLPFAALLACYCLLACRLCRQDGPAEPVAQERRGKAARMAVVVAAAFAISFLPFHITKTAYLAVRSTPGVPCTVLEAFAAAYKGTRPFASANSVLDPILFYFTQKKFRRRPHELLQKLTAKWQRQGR
T1 sequence (P41231 whole entry, species assumed): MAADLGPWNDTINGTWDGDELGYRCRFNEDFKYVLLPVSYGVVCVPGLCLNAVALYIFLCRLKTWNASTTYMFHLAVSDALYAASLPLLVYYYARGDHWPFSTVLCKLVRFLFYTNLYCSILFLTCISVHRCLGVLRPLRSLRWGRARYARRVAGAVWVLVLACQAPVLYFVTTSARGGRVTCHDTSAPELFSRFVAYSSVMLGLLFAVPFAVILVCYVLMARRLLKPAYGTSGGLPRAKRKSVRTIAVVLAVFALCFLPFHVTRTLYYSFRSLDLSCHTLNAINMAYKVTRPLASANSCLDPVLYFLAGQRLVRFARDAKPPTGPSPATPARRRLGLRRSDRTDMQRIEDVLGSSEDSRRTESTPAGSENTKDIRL
T2 sequence (P51582 whole entry, species assumed): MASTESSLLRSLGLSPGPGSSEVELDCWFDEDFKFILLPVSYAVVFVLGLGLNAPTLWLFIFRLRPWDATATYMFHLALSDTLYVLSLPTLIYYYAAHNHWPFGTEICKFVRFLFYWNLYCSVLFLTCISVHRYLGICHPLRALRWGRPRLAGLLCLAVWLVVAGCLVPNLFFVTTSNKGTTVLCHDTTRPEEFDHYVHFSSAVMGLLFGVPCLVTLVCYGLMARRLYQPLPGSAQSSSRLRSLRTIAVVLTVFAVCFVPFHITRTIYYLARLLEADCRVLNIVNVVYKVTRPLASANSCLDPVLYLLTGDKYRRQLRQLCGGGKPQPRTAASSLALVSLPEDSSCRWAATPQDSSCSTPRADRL
T3 sequence (P47900 whole entry, species assumed): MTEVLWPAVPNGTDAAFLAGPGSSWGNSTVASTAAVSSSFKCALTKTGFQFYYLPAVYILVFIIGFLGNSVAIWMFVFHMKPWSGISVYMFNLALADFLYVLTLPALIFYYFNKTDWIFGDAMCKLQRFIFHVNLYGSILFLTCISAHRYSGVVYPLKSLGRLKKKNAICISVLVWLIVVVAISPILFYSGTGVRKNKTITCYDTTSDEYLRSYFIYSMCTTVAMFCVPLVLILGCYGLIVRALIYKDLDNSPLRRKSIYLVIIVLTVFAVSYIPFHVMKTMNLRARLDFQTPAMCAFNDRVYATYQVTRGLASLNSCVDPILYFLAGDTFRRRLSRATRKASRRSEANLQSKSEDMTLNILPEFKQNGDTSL

Row | SMILES | EC50 (P2Y2) [µM] | EC50 (P2Y4) [µM] | EC50 (P2Y1) [µM] | EC50 (P2Y6) [µM]
1 | O=c1ccn([C@@H]2O[C@H](COP(=O)(O)OP(=O)(O)O)[C@@H](O)[C@H]2O)c(=O)[nH]1 [UDP, uridine 5′-diphosphate] | 4.2 | 9.48 | > 100 | 0.5
2 | O=c1ccn([C@@H]2O[C@H](COP(=O)(O)OP(=O)(O)OP(=O)(O)OC[C@@H]3O[C@H](n4ccc(=O)[nH]c4=O)C4OC(Cc5ccccc5)OC43)C(O)C2O)c(=O)[nH]1 (stereo partly drawn) [mono-benzylacetal UP3U, P^1-(2′,3′-benzylacetaluridine 5′-)P^3-(uridine 5′-)triphosphate] | > 100 | > 100 | > 100 | 0.14
3 | O=c1ccn([C@@H]2O[C@H](COP(=O)(O)OP(=O)(O)OP(=O)(O)OC[C@H]3O[C@@H](n4ccc(=O)[nH]c4=O)[C@H](O)[C@@H]3O)[C@@H](O)[C@H]2O)c(=O)[nH]1 [UP3U, P^1, P^3-(diuridine 5′-)triphosphate] | 13 | > 100 | > 100 | 0.92
